According to patent US20250353835A1, “N-TETRAZOLYL ARYL UREA-BASED DERIVATIVES, PREPARATION METHOD THEREFOR, AND USE THEREOF” (Hangzhou Yirui Pharmaceutical Technology Co., Ltd, priority 2022, published 2025):

target: T1, human B1R (Homo sapiens, UniProt P46663); experiment: FLIPR calcium ion flux assay, inhibitory activity against human B1R; assay type: cell-based; conditions: HEK293 cells stably expressing human B1R; agonist [Lys-des-Arg9]-Bradykinin 4.6 nM (EC80); FLIPR method
T1 construct: host or cells: HEK293
T1 sequence (P46663 1-353): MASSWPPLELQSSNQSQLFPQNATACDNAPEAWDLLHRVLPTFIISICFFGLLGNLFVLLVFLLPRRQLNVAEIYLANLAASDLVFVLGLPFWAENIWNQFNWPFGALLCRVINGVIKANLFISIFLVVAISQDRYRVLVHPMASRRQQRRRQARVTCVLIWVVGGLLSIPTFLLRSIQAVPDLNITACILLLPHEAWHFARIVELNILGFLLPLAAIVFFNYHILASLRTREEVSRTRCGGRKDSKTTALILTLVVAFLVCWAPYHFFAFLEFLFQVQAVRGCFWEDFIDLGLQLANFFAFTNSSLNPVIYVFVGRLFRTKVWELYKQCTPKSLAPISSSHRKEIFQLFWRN
Method: The inhibitory activity of the compounds against human B1R and B2R channels was determined by calcium ion flux assay using fluorometric imaging plate reader (FLIPR method). See literatures of Lee, Chen et al. for the method. [Lee et al. 2008][Chen et al. 2011]
1. Cell culture: HEK293 recombinant cell lines (WuXi AppTec, Shanghai, China) stably expressing human B1R and B2R were cultured in DMEM (Invitrogen, Cat #11965) medium containing 10% calf serum (Excellbio, Cat #FSP500), 5 μg/ml Geneticin (Invitrogen, Cat #10131) and Penicillin/Streptomycin (Invitrogen, Cat #15140). The incubator conditions were 37° C. and ambient humidity containing 5% CO2.
2. Preparation of the cell assay plate: B1R and B2R cells were seeded in a 384-well assay plate (Greiner, Cat #781090) at a density of 20,000 cells per well (20 μl/well), and cultured overnight at 37° C. in an incubator with 5% CO2. The next day, Fluo-4 Direct™ Loading Buffer (containing 5 mM Probenicid) containing 2× (8 μM) Fluo-4 Direct (Invitrogen, Cat #F10471) was added to each of the wells. The cells were cultured at 37° C. for 50 min, and then culture for at the room temperature 10 min.
3. Preparation of the compound assay plate: The compound was dissolved in 100% DMSO to make a 30 mM stock solution and stored at −20° C. On the day of use, the stock solution of the compound was thawed at the room temperature. Each of the compounds was serially diluted at 1:5 in DMSO culture medium with a starting concentration of 30 μM for 9 concentration points on a 384-well plate. Each of compounds was diluted in duplicate for testing. [Des-Arg10]-HOE140 was used as a positive control compound, and diluted in the same manner with a starting concentration of 3 μM.
4. FLIPR assay: The cell assay plate was placed in a FLIPR instrument ([…]). The compounds in the compound assay plate were added to the corresponding wells on the cell assay plate (10 μL/well) using an automatic program. The calcium ion fluorescence signal was recorded to determine whether the compound may have agonist activity. After 10 minutes, a B1R agonist [Lys-des-Arg9]-Bradykinin2 (10 μL/well) with a final concentration of 4.6 nM (EC80) was added to each of the wells to stimulate the generation of intracellular calcium ion flux signals. The Ca^++-dependent fluorescence signal was continuously monitored at a wavelength of 538 nm to analyze the inhibitory activity of the compound.
5. Data analysis: The data was collected and analyzed by a FLIPR program. The inhibitory (or agonist) activity of the compound at each concentration was evaluated by the fluorescence peak. The IC50 values of the compounds were calculated using EXCEL and PRISM programs.

SMILES	IC50 [nM]
CC(C)(C)C1CCN(C(=O)Nc2ccc(C(=O)NC3CCCC3)c(-c3nn[nH]n3)c2)CC1 [Compound 46, 4-(tert-butyl)-N-(4-(cyclopentylaminoformyl)-3-(2H-tetrazol-5-yl)phenyl)piperidine-1-carboxamide]	74.6
CC(C)(C)C1CCN(C(=O)Nc2cc(F)c(-c3ccc(C(F)(F)F)nc3)c(-c3nn[nH]n3)c2)CC1 [Compound 18, 4-(tert-butyl)-N-(3-fluoro-5-(2H-tetrazol-5-yl)-4-(6-(trifluoromethyl)pyrid-3-yl)phenyl)piperidine-1-carboxamide]	9.9
CC1CCN(C(=O)Nc2ccc(-c3ccc4c(cnn4C)c3)c(-c3nn[nH]n3)c2)CC1 [Compound 21, 4-methyl-N-(4-(1-methyl-1H-indazol-5-yl)-3-(2H-tetrazol-5-yl)phenyl)piperidine-1-carboxamide]	21.1
COc1cncc(-c2c(F)cc(NC(=O)N3CCC(C(C)(C)C)CC3)cc2-c2nn[nH]n2)c1 [Compound 50, 4-(tert-butyl)-N-(3-fluoro-4-(5-methoxypyrid-3-yl)-5-(2H-tetrazol-5-yl)phenyl) piperidine-1-carboxamide]	54.8
CCOC(=O)c1ccc(NC(=O)N2CCC(C(C)(C)C)CC2)cc1-c1nn[nH]n1 [Compound 45, ethyl 4-(4-(tert-butyl)piperidine-1-formamido)-2-(2H-tetrazol-5-yl)benzoate]	103
CC(C)(C)c1cn(-c2c(F)cc(NC(=O)N3CCC(C(C)(C)C)CC3)cc2-c2nn[nH]n2)cn1 [Compound 57, 4-(tert-butyl)-N-(4-(4-(tert-butyl)-1H-imidazol-1-yl)-3-fluoro-5-(2H-tetrazol-5-yl)phenyl)piperidine-1-carboxamide]	8.1
CCOC(=O)c1ccc(NC(=O)N2CCC(C)CC2)cc1-c1nn[nH]n1 [Compound 24, ethyl 4-(4-methylpiperidine-1-formamido)-2-(2H-tetrazol-5-yl)benzoate]	35.7
CC(C)(C)C1CCN(C(=O)Nc2ccc(-c3cnn(C4CCC4)c3)c(-c3nn[nH]n3)c2)CC1 [Compound 9, 4-(tert-butyl)-N-(4-(1-cyclobutyl-1H-pyrazol-4-yl)-3-(2H-tetrazol-5-yl)phenyl) piperidine-1-carboxamide]	45.9
C[C@H]1CC[C@@H](NC(=O)Nc2ccc(C3CCOCC3)c(-c3nn[nH]n3)c2)CC1 [Compound 67, 1-((cis)-4-methylcyclohexyl)-3-(4-(tetrahydro-2H-pyran-4-yl)-3-(2H-tetrazol-5-yl)phenyl)urea]	13300
CC(C)(C)C1CCN(C(=O)Nc2cnc(C(=O)OC3CCCCC3)c(-c3nn[nH]n3)c2)CC1 [Compound 38, cyclohexyl 5-(4-(tert-butyl)piperidine-1-formamido)-3-(2H-tetrazol-5-yl)pyridylcarboxylate]	83.7
CCOC(=O)c1ncc(NC(=O)N2CCC(C(C)(C)C)CC2)cc1-c1nn[nH]n1 [Compound 37, ethyl 5-(4-(tert-butyl)piperidine-1-formamido)-3-(2H-tetrazol-5-yl)pyridylcarboxylate]	72.7
CCOC(=O)c1ccc(NC(=O)N2CCC(C(F)(F)F)CC2)cc1-c1nn[nH]n1 [Compound 30]	35.4
C[C@H]1CC[C@@H](NC(=O)Nc2ccc(OC3CCOCC3)c(-c3nn[nH]n3)c2)CC1 [Compound 72]	12000
CCOc1ccc(-c2c(F)cc(NC(=O)N3CCC(C)CC3)cc2-c2nn[nH]n2)cn1 [Compound 31, N-(4-(6-ethoxypyrid-3-yl)-3-fluoro-5-(2H-tetrazol-5-yl)phenyl)-4-methylpiperidine-1-carboxamide]	19.2

Further lines, results first:

IC50 [nM]	SMILES
23.6	CCOc1ccc(-c2ccc(NC(=O)N3CCC(C(C)(C)C)CC3)cc2-c2nn[nH]n2)cn1 [Compound 6, 4-(tert-butyl)-N-(4-(6-ethoxypyrid-3-yl)-3-(2H-tetrazol-5-yl)phenyl)piperidine-1-carboxamide]
4910	C[C@H]1CC[C@H](NC(=O)Nc2ccc(-c3ccc4c(c3)OCO4)c(-c3nn[nH]n3)c2)CC1 [Compound 69, 1-(4-(benzo[d][1,3]dioxolan-5-yl)-3-(2H-tetrazol-5-yl)phenyl)-3-((trans)-4-methylcyclohexyl)urea]
34.9	Cc1cc(-c2ccc(NC(=O)N3CCC(C(C)(C)C)CC3)cc2-c2nn[nH]n2)ccn1 [Compound 52, 4-(tert-butyl)-N-(4-(2-methylpyridin-4-yl)-3-(2H-tetrazol-5-yl)phenyl)piperidine-1-carboxamide]
372	COc1cncc(-c2ccc(NC(=O)N3CCC(C(C)(C)C)CC3)cc2-c2nn[nH]n2)c1 [Compound 48, 4-(tert-butyl)-N-(4-(5-methoxypyrid-3-yl)-3-(2H-tetrazol-5-yl)phenyl)piperidine-1-carboxamide]
92.9	COc1ccc(-c2ncc(NC(=O)N3CCC(C(C)(C)C)CC3)cc2-c2nn[nH]n2)cc1OC [Compound 35, 4-(tert-butyl)-N-(6-(3,4-dimethoxyphenyl)-5-(2H-tetrazol-5-yl)pyrid-3-yl)piperidine-1-carboxamide]
30.2	COc1ccc(-c2ccc(NC(=O)N3CCC(C)CC3)cc2-c2nn[nH]n2)cc1Cl [Compound 22, N-(3′-chloro-4′-methoxy-2-(2H-tetrazol-5-yl)-[1,1′-biphenyl]-4-yl)-4-methylpiperidine-1-carboxamide]
109	CC(C)(C)C1CCN(C(=O)Nc2ccc(-c3ccc(C(F)F)nc3)c(-c3nn[nH]n3)c2)CC1 [Compound 42, 4-(tert-butyl)-N-(4-(6-(difluoromethyl)pyrid-3-yl)-3-(2H-tetrazol-5-yl)phenyl)piperidine-1-carboxamide]
247	COc1ccc(-c2ccc(NC(=O)Nc3ccc(C(F)(F)F)cc3)cc2-c2nn[nH]n2)cc1OC [Compound 60, 1-(3′,4′-dimethoxy-2-(2H-tetrazol-5-yl)-[1,1′-biphenyl]-4-yl)-3-(4-(trifluoromethyl)phenyl)urea]
148	COc1ccc(-c2ccc(NC(=O)N3CCC(C)(C)CC3)cc2-c2nn[nH]n2)cc1OC [Compound 12, N-(3′,4′-dimethoxy-2-(2H-tetrazol-5-yl)-[1,1′-biphenyl]-4-yl)-4,4-dimethylpiperidine-1-carboxamide]
1140	COc1ccc(-c2ccc(NS(=O)(=O)N3CCC(C)CC3)cc2-c2nn[nH]n2)cc1OC [Compound 19, N-(3′,4′-dimethoxy-2-(2H-tetrazol-5-yl)-[1,1′-biphenyl]-4-yl)-4-methylpiperidine-1-sulfamide]
35.4	COc1ccc(-c2ccc(NC(=O)NC3CCC(C(C)(C)C)CC3)cc2-c2nn[nH]n2)cc1OC (stereo not drawn) [Compound 59, 1-(4-(tert-butyl)cyclohexyl)-3-(3′,4′-dimethoxy-2-(2H-tetrazol-5-yl)-[1,1′-biphenyl]-4-yl)urea]
14.6	COc1ccc(-c2c(F)cc(NC(=O)N3CCC(C(C)(C)C)CC3)cc2-c2nn[nH]n2)cc1Cl [Compound 33, 4-(tert-butyl)-N-(3′-chloro-2-fluoro-4′-methoxy-6-(2H-tetrazol-5-yl)-[1,1′-biphenyl]-4-yl)piperidine-1-carboxamide]
9900	COc1ccc(Oc2ccc(NC(=O)N[C@H]3CC[C@H](C)CC3)cc2-c2nn[nH]n2)cc1OC [Compound 64, 1-(4-(3,4-dimethoxyphenoxy)-3-(2H-tetrazol-5-yl)phenyl)-3-((trans)-4-methylcyclohexyl)urea]
